In publication PMC9827882, “Templated Generation of a Bcl‐xL Inhibitor by Isomer‐Free SPAAC Based on Azacyclonon‐5‐yne” (Chemistry (Weinheim an Der Bergstrasse, Germany), 2022):

Tests used:
Bcl‐xL [1] = target: T1, Bcl‐xL (Homo sapiens, UniProt Q07817, DEL45-84); assay: Competitive fluorescence polarization (FP) binding assay: Bcl‐xL and fluorescein‐labeled Bak BH3‐derived peptide; conditions: for IC50: Bcl‐xL 37 nM, Bak BH3 peptide 4 nM, triplicate, read-out: IC50 against Bcl‐xL in FP assay
T1 construct: The protein Bcl‐xL (amino acids 1‐209, Δ45–84, kindly provided by Prof. Ho Sup Yoon); gift of Prof; Ho Sup Yoon, Nanyang Technological University, Singapore
Method: The abilities of triazoles 11 a/c to interfere with binding between Bcl‐xL and a fluorescein‐labeled peptide derived from the pro‐apoptotic Bcl‐2 protein Bak was analyzed in a competitive binding assay based on fluorescence polarization (FP).[9, 20]
Fluorescence polarization assays: Assays were performed essentially as described previously.[20, 30] The protein Bcl‐xL (amino acids 1‐209, Δ45–84, kindly provided by Prof. Ho Sup Yoon, Nanyang Technological University, Singapore)[31] was incubated with the test compounds for 1 h at room temperature at a protein concentration of 37 nM. Subsequently, fluorophore‐labeled Bak BH3‐derived peptide (5‐carboxyfluorescein‐[…]‐NH2 was added (final peptide concentration: 4 nM), and the fluorescence polarization was measured after another 60 min in a plate reader (Tecan Infinite F500). All experiments were carried out in triplicate. Buffer composition: 10 mM Tris pH 8.0, 50 mM NaCl, 1 mM EDTA, 0.1 % Nonidet P‐40 substitute, 1 mM DTT, and 2 % DMSO.

Bcl‐xL [2] = target: T1, Bcl‐xL; assay: Kinetic analysis by HPLC of the reaction between 12 d and 13 to generate 11 d in aqueous buffer, templated by Bcl‐xL; conditions: for second‐order rate constant k of formation of 11 d from 12 d and 13: 12 d and 13 both 50 μM; for second‐order rate constant k of formation of 11 d from 12 d and 13 / rate acceleration over the reaction of 1 and benzyl azide in acetonitrile at room temperature: aqueous buffer, 37 °C
Method: While the reactivities of cycloalkynes are typically characterized by their second‐order rate constants in the reaction with benzylazide in CD3CN, or sometimes CD3OD, the relevant reactivity of a cycloalkyne for use in iSPAAC is the reactivity between the functionalized cycloalkyne and the functionalized azide in aqueous media at the physiological temperature of 37 °C. We therefore analyzed the kinetics of the reaction between the functionalized cycloalkyne 12 d and the azide 13 in aqueous buffer by reversed‐phase (RP)‐HPLC. Incubation of 12 d and 13 (both at 50 μM) at 37 °C generated the triazole 11 d with a second‐order rate constant of 2.1±0.2×10^−3 M^−1 s^−1 (Figures 7 and S6). This represents a 450‐fold rate acceleration over the reaction of 1 and benzyl azide in acetonitrile at room temperature (k=4.7±0.1×10^−6 M^−1 s^−1). In the presence of an additional, equimolar amount of Bcl‐xL, this rate was further increased by a factor of 6 (k=1.33±0.06×10^−2 M^−1 s^−1), representing a 2800‐fold higher rate constant than observed in the standard reaction between 1 and benzyl azide in acetonitrile at room temperature. […] Of particular relevance in this context are the templated synthesis of sulfonamide‐based Bcl‐xL inhibitors using sulfonyl azides and thioacids,[23] and protein‐templated formation of 1,2,3‐triazoles from azides and terminal alkynes in the absence of Cu^I.[24]
Kinetic analysis by HPLC: 12 d (50 μM) and 13 (50 μM) were incubated at 37 °C in the absence of Bcl‐xL, in the presence of Bcl‐xL (50 μM), and in the presence of both Bcl‐xL (50 μM) and ABT‐737 (50 μM). At the given time points, aliquots of 60 μL were diluted with 60 μL of 0.1 % TFA in 4.5 % acetonitrile/H2O and analyzed by RP‐HPLC (100 μL injection volume). The formation of 11 d was quantified by peak area using a standard curve. 1/(50×10^−6−[11 d]) [M^−1] was plotted against time. Linear regression gave the second‐order rate constant k as the slope. Experiments were carried out in triplicate. Buffer composition: 10 mM Tris pH 8.0, 50 mM NaCl, 1 mM EDTA, 0.1 % Nonidet P‐40 substitute, and 4 % DMSO.

[3] = parameters: method as in PMID 18451170; conditions: cited from earlier work
[4] = parameters: method as in PMID 18451170; conditions: cited from earlier work; remark: listed apart in the source

T1 sequence (Q07817 with tags, fused parts or gaps DEL45-84): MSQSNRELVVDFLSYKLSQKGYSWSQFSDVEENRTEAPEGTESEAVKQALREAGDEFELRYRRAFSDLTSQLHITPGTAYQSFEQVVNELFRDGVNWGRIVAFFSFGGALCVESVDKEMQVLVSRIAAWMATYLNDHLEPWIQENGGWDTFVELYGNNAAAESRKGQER

CN(C)CC[C@H](CSc1ccccc1)Nc1ccc(S(=O)(=O)NC(=O)Cn2nnc3c2CCCN(C(=O)c2ccccc2-c2ccc(Cl)cc2)CCC3)cc1[N+](=O)[O-] [11 a]
IC50 (Bcl‐xL [1]): 18 ± 0.7 µM

CN(C)CC[C@H](CSc1ccccc1)Nc1ccc(S(=O)(=O)NC(=O)Cn2nnc3c2CCCN(C(=O)OCc2ccccc2-c2ccc(Cl)cc2)CCC3)cc1[N+](=O)[O-] [11 c]
IC50 (Bcl‐xL [1]): 11.4 ± 0.9 µM

CN(C)CC[C@H](CSc1ccccc1)Nc1ccc(S(=O)(=O)NC(=O)Cn2nnc3c2CCCN(C(=O)OCC2=C(c4ccc(Cl)cc4)CCNC2)CCC3)cc1[N+](=O)[O-] [11 d]
second‐order rate constant k of formation of 11 d from 12 d and 13 (Bcl‐xL [2]; equimolar Bcl‐xL (50 μM)): 1.33±0.06×10^−2 M^−1 s^−1
rate acceleration over the reaction of 1 and benzyl azide in acetonitrile at room temperature (Bcl‐xL [2]; no Bcl‐xL): 450 fold
second‐order rate constant k of formation of 11 d from 12 d and 13 (Bcl‐xL [2]; no Bcl‐xL, RP‐HPLC): 2.1±0.2×10^−3 M^−1 s^−1
rate increase by Bcl‐xL (template effect) (Bcl‐xL [2]; with equimolar Bcl‐xL vs without Bcl‐xL): 6 factor
rate acceleration over the reaction of 1 and benzyl azide in acetonitrile at room temperature (Bcl‐xL [2]; with equimolar Bcl‐xL): 2800 fold
IC50 (Bcl‐xL [1]): 2.42 ± 0.02 µM
almost 5-fold higher inhibitory potency of 11 d than 11 c (Bcl‐xL [1]; ratio of IC50 values, 11 d vs 11 c): ~5 fold

O=C(c1ccccc1-c1ccc(Cl)cc1)N1CCCC#CCCC1 [12 a]
activity against Bcl‐xL in FP assay (in words) (Bcl‐xL [1]; 100 μM, FP assay): inactive
activity against Bcl‐xL in FP assay (in words) (Bcl‐xL [1]; 100 μM, FP assay, listed as 12a): no inhibition

O=C(OCc1ccccc1-c1ccc(Cl)cc1)N1CCCC#CCCC1 [12 c]
activity against Bcl‐xL in FP assay (in words) (Bcl‐xL [1]; 100 μM, FP assay): inactive
activity against Bcl‐xL in FP assay (in words) (Bcl‐xL [1]; 100 μM, FP assay, listed as 12c): no inhibition

O=C(OCC1=C(c2ccc(Cl)cc2)CCNC1)N1CCCC#CCCC1 [12 d]
activity against Bcl‐xL in FP assay (in words) (Bcl‐xL [1]; 100 μM, FP assay): inactive
activity against Bcl‐xL in FP assay (in words) (Bcl‐xL [1]; 100 μM, FP assay, listed as 12d): no inhibition

CN(C)CC[C@H](CSc1ccccc1)Nc1ccc(S(=O)(=O)NC(=O)c2ccc(N3CCN(Cc4ccccc4-c4ccc(Cl)cc4)CC3)cc2)cc1[N+](=O)[O-] [ABT‐737]
oral bioavailability [3]: poor
cell permeability in tissue culture [4]: cell‐permeable

CN(C)CC[C@H](CSc1ccccc1)Nc1ccc(S(=O)(=O)NC(=O)CN=[N+]=[N-])cc1[N+](=O)[O-] [compound 13]
inhibition at 100 µM (Bcl‐xL [1]; 100 μM, FP assay): 48 ± 3%
